Values quoted from earlier work in patent publication US8715625B1, “Natural oral care compositions” (The Clorox Company, priority 2010, dated 2014).

Tested on: plaque
Conditions: two tests conducted by Purdue University's Dental Science Research Group

SMILES: C=C1C[C@@]23CC[C@H]4[C@@](C)(CCC[C@@]4(C)C(=O)O[C@@H]4O[C@H](CO)[C@@H](O)[C@H](O)[C@H]4O)[C@@H]2CC[C@]1(O[C@@H]1O[C@H](CO)[C@@H](O)[C@H](O)[C@H]1O[C@@H]1O[C@H](CO)[C@@H](O)[C@H](O)[C@H]1O)C3 [Stevioside]
- development of plaque: “significantly” inhibits the development of plaque
